Results from ChEMBL document CHEMBL1759968, “Synthesis and biological evaluation of unsaturated keto and exomethylene D-arabinopyranonucleoside analogs: novel 5-fluorouracil analogs that target thymidylate synthase” (Eur J Med Chem, 2011).
Activity calls are given as the source filed them. No cut-off for these calls is given here.

What was measured:
Punta Toro virus = test: Antiviral activity against Punta Toro virus infected in Vero cells assessed as inhibition of virus-induced cytopathic effect; assay type: functional, organism-based
Vaccinia virus = test: Antiviral activity against Vaccinia virus infected in HEL cells assessed as inhibition of virus-induced cytopathic effect; assay type: functional, organism-based; conditions: Orthopoxvirus vaccinia
Coxsackievirus B4 [1] = test: Antiviral activity against Human coxsackievirus B4 infected in HeLa cells assessed as inhibition of virus-induced cytopathic effect; assay type: functional, organism-based
[2] = tested on: Mammalian orthoreovirus 1; test: Antiviral activity against Reovirus 1 infected in Vero cells assessed as inhibition of virus-induced cytopathic effect; assay type: functional, organism-based
L1210 [3] = test: Cytostatic activity against mouse L1210 cells after 2 days by coulter counting analysis; assay type: functional, cell-based; conditions: L1210, 48 h
CCRF-CEM = test: Cytostatic activity against human CEM cells after 3 days by coulter counting analysis; assay type: functional, cell-based; conditions: 72 h
Human respirovirus 3 = test: Antiviral activity against Human parainfluenza virus 3 infected in Vero cells assessed as inhibition of virus-induced cytopathic effect; assay type: functional, organism-based
Sindbis virus = test: Antiviral activity against Sindbis virus infected in Vero cells assessed as inhibition of virus-induced cytopathic effect; assay type: functional, organism-based
HeLa [4] = test: Cytostatic activity against human HeLa cells after 3 days by coulter counting analysis; assay type: functional, cell-based; conditions: 72 h
FM3A = test: Cytostatic activity against mouse FM3A cells after 2 days by coulter counting analysis; assay type: functional, cell-based; conditions: 48 h
Coxsackievirus B4 [5] = test: Antiviral activity against Human coxsackievirus B4 infected in Vero cells assessed as inhibition of virus-induced cytopathic effect; assay type: functional, organism-based
Human alphaherpesvirus 1 = test: Antiviral activity against Herpes simplex virus type-1 infected in HEL cells assessed as inhibition of virus-induced cytopathic effect; assay type: functional, organism-based
[6] = tested on: Vesicular stomatitis virus; test: Antiviral activity against Vesicular stomatitis virus infected in HeLa cells assessed as inhibition of virus-induced cytopathic effect; assay type: functional, organism-based
[7] = tested on: Respiratory syncytial virus; test: Antiviral activity against Respiratory syncytial virus infected in HeLa cells assessed as inhibition of virus-induced cytopathic effect; assay type: functional, organism-based
[8] = tested on: Vesicular stomatitis virus; test: Antiviral activity against Vesicular stomatitis virus infected in HEL cells assessed as inhibition of virus-induced cytopathic effect; assay type: functional, organism-based
Human alphaherpesvirus 2 = test: Antiviral activity against Herpes simplex virus type-2 infected in HEL cells assessed as inhibition of virus-induced cytopathic effect; assay type: functional, organism-based
Thymidylate synthase [9] = target: T1, Thymidylate synthase (Mus musculus, UniProt P07607); test: Inhibition of thymidylate synthase in mouse L1210 cells assessed as inhibition of tritium release from [5-3H]deoxycytidine after preincubation for 24 hrs by liquid scintillation counting; assay type: cell-based
T1 sequence (P07607 whole entry): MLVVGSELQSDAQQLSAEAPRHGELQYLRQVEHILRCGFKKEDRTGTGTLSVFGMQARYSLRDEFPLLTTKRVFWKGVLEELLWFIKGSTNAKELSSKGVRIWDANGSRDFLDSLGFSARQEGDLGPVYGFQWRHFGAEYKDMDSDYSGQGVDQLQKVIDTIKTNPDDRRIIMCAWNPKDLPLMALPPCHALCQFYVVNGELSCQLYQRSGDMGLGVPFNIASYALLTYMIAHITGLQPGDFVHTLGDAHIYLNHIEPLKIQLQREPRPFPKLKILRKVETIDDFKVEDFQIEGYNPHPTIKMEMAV

Thymidylate synthase [10] = target: T1, Thymidylate synthase; test: Inhibition of thymidylate synthase in mouse L1210 cells assessed as inhibition of tritium release from [5-3H]deoxyuridine after preincubation for 4 hrs by liquid scintillation counting; assay type: cell-based
HeLa [11] = test: Cytostatic activity against human HeLa cells in presence of 20 uM thymidine; assay type: functional, cell-based
HeLa [12] = test: Cytostatic activity against human HeLa cells in presence of 20 uM 2'-deoxyuridine; assay type: functional, cell-based
HeLa [13] = test: Cytostatic activity against human HeLa cells in presence of 500 uM uridine; assay type: functional, cell-based
L1210 [14] = test: Cytostatic activity against mouse L1210 cells in presence of 500 uM uridine; assay type: functional, cell-based
Thymidylate synthase [15] = target: T1, Thymidylate synthase; test: Inhibition of thymidylate synthase in mouse L1210 cells assessed as inhibition of tritium release from [5-3H]deoxyuridine after preincubation for 24 hrs by liquid scintillation counting; assay type: cell-based
L1210 [16] = test: Cytostatic activity against mouse L1210 cells in presence of 20 uM thymidine; assay type: functional, cell-based
Thymidylate synthase [17] = target: T1, Thymidylate synthase; test: Inhibition of thymidylate synthase in mouse L1210 cells assessed as inhibition of tritium release from [5-3H]deoxyuridine after preincubation for 15 mins by liquid scintillation counting; assay type: cell-based
L1210 [18] = test: Cytostatic activity against mouse L1210 cells in presence of 20 uM 2'-deoxyuridine; assay type: functional, cell-based
HeLa [19] = test: Cytostatic activity against human HeLa cells in presence of 500 uM uracil; assay type: functional, cell-based
Thymidylate synthase [20] = target: T1, Thymidylate synthase; test: Inhibition of thymidylate synthase in mouse L1210 cells assessed as inhibition of tritium release from [5-3H]deoxycytidine after preincubation for 15 mins by liquid scintillation counting; assay type: cell-based
L1210 [21] = test: Cytostatic activity against mouse L1210 cells in presence of 500 uM uracil; assay type: functional, cell-based

SMILES | Activity (Punta Toro virus) | Activity (Vaccinia virus) | Activity (Coxsackievirus B4 [1]) | Activity [2] | IC50 (L1210 [3]) [µM] | IC50 (CCRF-CEM) [µM] | Activity (Human respirovirus 3) | Activity (Sindbis virus) | IC50 (HeLa [4]) [µM] | IC50 (FM3A) [µM] | Activity (Coxsackievirus B4 [5]) | Activity (Human alphaherpesvirus 1) | Activity [6] | Activity [7] | Activity [8] | Activity (Human alphaherpesvirus 2) | also measured
O=C(Nc1ccn([C@H]2OCC=CC2=O)c(=O)n1)c1ccccc1 | inactive | inactive | inactive | inactive | 28 | 46 | inactive | inactive | 72 | 62 | inactive | inactive | inactive | inactive | inactive | inactive | –
O=c1[nH]c(=O)n([C@H]2C[C@H](O)[C@@H](CO)O2)cc1F [FLOXURIDINE] | inactive | inactive | inactive | inactive | 0.0011 | – | inactive | inactive | – | 0.0094 | inactive | inactive | inactive | inactive | inactive | inactive | IC50 (Thymidylate synthase [9]): 0.0007 µM; IC50 (Thymidylate synthase [10]): 0.0004 µM; IC50 (HeLa [11]): 8.5 µM; IC50 (HeLa [12]): 0.021 µM; IC50 (HeLa [13]): 0.061 µM; IC50 (L1210 [14]): 0.0023 µM; IC50 (Thymidylate synthase [15]): 0.0004 µM; IC50 (L1210 [16]): 100 µM; IC50 (Thymidylate synthase [17]): 0.0006 µM; IC50 (L1210 [18]): 0.0051 µM; IC50 (HeLa [19]): 0.11 µM; IC50 (Thymidylate synthase [20]): 0.0006 µM; IC50 (L1210 [21]): 0.00063 µM
C=C1C=CCO[C@@H]1n1cc(C)c(O)nc1=O | inactive | inactive | inactive | inactive | 486 | 504 | inactive | inactive | 339 | ≥ 900 | inactive | inactive | inactive | inactive | inactive | inactive | –
C=C1C=CCO[C@@H]1n1ccc(N)nc1=O | inactive | inactive | inactive | inactive | 1390 | 1550 | inactive | inactive | 990 | ≥ 1800 | inactive | inactive | inactive | inactive | inactive | inactive | –
O=C1C=CCO[C@@H]1n1ccc(O)nc1=O | inactive | inactive | inactive | inactive | 92 | 82 | inactive | inactive | 42 | 121 | inactive | inactive | inactive | inactive | inactive | inactive | –
O=C1C=CCO[C@@H]1n1cc(C(F)(F)F)c(O)nc1=O | inactive | inactive | inactive | inactive | 23 | 39 | inactive | inactive | 34 | 46 | inactive | inactive | inactive | inactive | inactive | inactive | –
C=C1C=CCO[C@@H]1n1ccc(NC(=O)c2ccccc2)nc1=O | inactive | inactive | inactive | inactive | 368 | 432 | inactive | inactive | 296 | 379 | inactive | inactive | inactive | inactive | inactive | inactive | –
C=C1[C@H](O)[C@H](O)CO[C@@H]1n1cc(C)c(O)nc1=O | inactive | inactive | inactive | inactive | 610 | ≥ 800 | inactive | inactive | ≥ 800 | 775 | inactive | inactive | inactive | inactive | inactive | inactive | –
C=C1C=CCO[C@@H]1n1ccc(O)nc1=O | inactive | inactive | inactive | inactive | 549 | 450 | inactive | inactive | 760 | > 1000 | inactive | inactive | inactive | inactive | inactive | inactive | –
C=C1[C@H](O)[C@H](O)CO[C@@H]1n1ccc(O)nc1=O | inactive | inactive | inactive | inactive | > 800 | > 800 | inactive | inactive | ≥ 800 | > 800 | inactive | inactive | inactive | inactive | inactive | inactive | –
Cc1cn([C@H]2OCC=CC2=O)c(=O)nc1O | inactive | inactive | inactive | inactive | 34 | 104 | inactive | inactive | 34 | 77 | inactive | inactive | inactive | inactive | inactive | inactive | –
O=c1[nH]c(=O)n([C@@H]2O[C@H](CO)[C@@H](O)[C@H]2O)cc1F [5-FLUOROURIDINE] | inactive | inactive | inactive | inactive | 0.014 | – | inactive | inactive | – | 0.014 | inactive | inactive | inactive | inactive | inactive | inactive | IC50 (HeLa [11]): 0.017 µM; IC50 (HeLa [12]): 0.022 µM; IC50 (HeLa [13]): 1.6 µM; IC50 (L1210 [14]): 0.72 µM; IC50 (L1210 [16]): 1.2 µM; IC50 (L1210 [18]): 0.026 µM; IC50 (HeLa [19]): 0.016 µM; IC50 (L1210 [21]): 0.0075 µM
